{"source": "paper PMC11881561", "about": "(Antimicrobial Agents and Chemotherapy, 2025)", "key": {"[1]": {"test_system": "E. coli control strain lacking a β-lactamase", "assay": "microbe, parasite or virus in culture", "format": "cell-based", "conditions": "Escherichia coli, no KPC expressed, BLIs at fixed 4 μg/mL"}, "[2]": {"test_system": "engineered E. coli strain expressing KPC-2 wt", "assay": "microbe, parasite or virus in culture", "format": "cell-based", "conditions": "Escherichia coli; KPC-2 wt strain; BLIs at fixed 4 μg/mL"}, "[3]": {"test_system": "engineered E. coli strain expressing KPC-2^V240G", "assay": "microbe, parasite or virus in culture", "format": "cell-based", "conditions": "Escherichia coli, BLIs at fixed 4 μg/mL"}, "[4]": {"test_system": "engineered E. coli strain expressing KPC-2^D179Y", "assay": "microbe, parasite or virus in culture", "format": "cell-based", "conditions": "Escherichia coli, BLIs at fixed 4 μg/mL"}, "[5]": {"test_system": "engineered E. coli strain expressing KPC-2^D179Y/T243M", "assay": "microbe, parasite or virus in culture", "format": "cell-based", "conditions": "Escherichia coli, BLIs at fixed 4 μg/mL"}, "[6]": {"test_system": "engineered E. coli strain expressing KPC-3 wt", "assay": "microbe, parasite or virus in culture", "format": "cell-based", "conditions": "Escherichia coli; KPC-3 wt strain; BLIs at fixed 4 μg/mL"}, "[7]": {"test_system": "engineered E. coli strain expressing KPC-3^V240G", "assay": "microbe, parasite or virus in culture", "format": "cell-based", "conditions": "Escherichia coli, BLIs at fixed 4 μg/mL"}, "[8]": {"test_system": "engineered E. coli strain expressing KPC-3^D179Y", "assay": "microbe, parasite or virus in culture", "format": "cell-based", "conditions": "Escherichia coli, BLIs at fixed 4 μg/mL"}, "[9]": {"test_system": "engineered E. coli strain expressing KPC-3^D179Y/T243M", "assay": "microbe, parasite or virus in culture", "format": "cell-based", "conditions": "Escherichia coli, BLIs at fixed 4 μg/mL"}, "[10]": {"test_system": "E. coli strains expressing KPC-2^D179Y or KPC-2^D179Y/T243M", "assay": "microbe, parasite or virus in culture", "format": "cell-based", "conditions": "Escherichia coli"}, "KPC-2^V240G": {"molecular_target": "KPC-2^V240G (Klebsiella pneumoniae, UniProt Q9F663, V239G)", "format": "biochemical"}, "KPC-2^D179Y [11]": {"molecular_target": "T1, KPC-2^D179Y (Klebsiella pneumoniae, UniProt Q9F663, D178Y)", "assay": "β-lactam hydrolysis kinetics, purified KPC-2 D179Y", "format": "biochemical", "conditions": "substrate hydrolysis by KPC-2 D179Y", "procedure": "(§1) Measurements to determine kinetic parameters for hydrolysis, and kinetic parameters for inhibition were performed at ambient temperature in PBS (pH 7.4) containing 0.1 mg/mL bovine serum albumin, using a PowerWaveXS plate reader (BioTek).\n(§2) Assays to determine Michaelis-Menten kinetic parameters were performed by mixing variable amounts of enzymes (depending on the enzyme-substrate pair), with serial dilutions of different BL substrates and continuously monitoring the reduction in absorbance associated with BL hydrolysis ([28], [36], [40], [41]). Kinetic parameters were determined by plotting initial rates of hydrolysis (v) as a function of substrate concentration [S] and fitting the data to equation 1 using GraphPad Prism,\n(§3) (1) v=[Et]×kcat×[S]/KM+[S]\n(§4) where [Et] is the enzyme concentration, kcat the turnover number and KM the Michaelis constant."}, "KPC-2^D179Y/T243M [12]": {"molecular_target": "T2, KPC-2^D179Y/T243M (Klebsiella pneumoniae, UniProt Q9F663, D178Y/T242M)", "assay": "β-lactam hydrolysis kinetics, purified KPC-2 D179Y/T243M", "format": "biochemical", "conditions": "substrate hydrolysis by KPC-2 D179Y/T243M", "procedure": "as §1, §2, §3, §4"}, "KPC-3 WT [13]": {"molecular_target": "T3, KPC-3 WT (Klebsiella pneumoniae, UniProt Q9F663, H272Y)", "format": "biochemical", "conditions": "substrate hydrolysis by KPC-3 WT"}, "KPC-3^V240G": {"molecular_target": "KPC-3^V240G (Klebsiella pneumoniae, UniProt Q9F663, H272Y/V239G)", "format": "biochemical"}, "KPC-3^D179Y [14]": {"molecular_target": "T4, KPC-3^D179Y (Klebsiella pneumoniae, UniProt Q9F663, D178Y/H272Y)", "assay": "β-lactam hydrolysis kinetics, purified KPC-3 D179Y", "format": "biochemical", "conditions": "substrate hydrolysis by KPC-3 D179Y", "procedure": "as §1, §2, §3, §4"}, "KPC-3^D179Y/T243M [15]": {"molecular_target": "T5, KPC-3^D179Y/T243M (Klebsiella pneumoniae, UniProt Q9F663, D178Y/H272Y/T242M)", "assay": "β-lactam hydrolysis kinetics, purified KPC-3 D179Y/T243M", "format": "biochemical", "conditions": "substrate hydrolysis by KPC-3 D179Y/T243M", "procedure": "as §1, §2, §3, §4"}, "KPC-2 WT": {"molecular_target": "KPC-2 WT (Klebsiella pneumoniae, UniProt Q9F663)", "assay": "biochemical", "conditions": "inhibition of CENTA hydrolysis, read-out: Apparent affinity Ki^app"}, "KPC-2^D179Y [16]": {"molecular_target": "T1, KPC-2^D179Y", "assay": "biochemical", "conditions": "ND = no significant inhibition at the highest concentration tested, read-out: Apparent affinity Ki^app"}, "KPC-2^D179Y/T243M [17]": {"molecular_target": "T2, KPC-2^D179Y/T243M", "assay": "biochemical", "conditions": "ND = no significant inhibition at the highest concentration tested, read-out: Apparent affinity Ki^app"}, "KPC-3 WT [18]": {"molecular_target": "T3, KPC-3 WT", "assay": "biochemical", "conditions": "inhibition of CENTA hydrolysis, read-out: Apparent affinity Ki^app"}, "KPC-3^D179Y [19]": {"molecular_target": "T4, KPC-3^D179Y", "assay": "biochemical", "conditions": "ND = no significant inhibition at the highest concentration tested, read-out: Apparent affinity Ki^app"}, "KPC-3^D179Y/T243M [20]": {"molecular_target": "T5, KPC-3^D179Y/T243M", "assay": "biochemical", "conditions": "ND = no significant inhibition at the highest concentration tested, read-out: Apparent affinity Ki^app"}, "[21]": {"test_system": "D179Y-containing KPC-2 variants", "format": "biochemical, Klebsiella pneumoniae"}, "[22]": {"test_system": "CC(C)(O/N=C(\\C(=O)N[C@@H]1C(=O)N2C(C(=O)[O-])=C(C[n+]3ccccc3)CS[C@H]12)c1csc(N)n1)C(=O)O", "assay": "purified protein, by the assay type", "conditions": "pH 7.4"}, "[23]": {"test_system": "CO/N=C(\\C(=O)N[C@@H]1C(=O)N2C(C(=O)[O-])=C(C[N+]3(C)CCCC3)CS[C@H]12)c1csc(N)n1", "assay": "purified protein, by the assay type", "conditions": "pH 7.4"}, "[24]": {"test_system": "Nc1nc(/C(=C/CC(=O)O)C(=O)N[C@@H]2C(=O)N3C(C(=O)O)=CCS[C@H]23)cs1", "assay": "purified protein, by the assay type", "conditions": "pH 7.4"}}, "data": [{"molecule": "CO/N=C(\\C(=O)N[C@@H]1C(=O)N2C(C(=O)[O-])=C(C[N+]3(C)CCCC3)CS[C@H]12)c1csc(N)n1", "note": "[FEP, cefepime]", "values": [{"measurement": "MIC", "setting": "[1]", "result": 0.12, "unit": "µg/mL"}, {"measurement": "MIC", "setting": "[2]", "result": 64, "unit": "µg/mL"}, {"measurement": "MIC", "setting": "[3]", "result": 128, "unit": "µg/mL"}, {"measurement": "MIC", "setting": "[4]", "result": 16, "unit": "µg/mL"}, {"measurement": "MIC", "setting": "[5]", "result": 16, "unit": "µg/mL"}, {"measurement": "MIC", "setting": "[6]", "result": 128, "unit": "µg/mL"}, {"measurement": "MIC", "setting": "[7]", "result": 256, "unit": "µg/mL"}, {"measurement": "MIC", "setting": "[8]", "result": 32, "unit": "µg/mL"}, {"measurement": "MIC", "setting": "[9]", "result": 16, "unit": "µg/mL"}, {"measurement": "MIC", "setting": "[10]", "result": 16, "unit": "µg/mL"}, {"measurement": "Km", "setting": "KPC-2^V240G", "result": "> 500", "unit": "µM"}, {"measurement": "Km", "setting": "KPC-2^D179Y [11]", "result": "3.7 ± 0.7", "unit": "µM"}, {"measurement": "kcat", "setting": "KPC-2^D179Y [11]", "result": "(1.5 ± 0.07) × 10^−2 s^−1"}, {"measurement": "Km", "setting": "KPC-2^D179Y/T243M [12]", "result": "3 ± 0.6", "unit": "µM"}, {"measurement": "kcat", "setting": "KPC-2^D179Y/T243M [12]", "result": "(1.7 ± 0.06) × 10^−2 s^−1"}, {"measurement": "Km", "setting": "KPC-3 WT [13]", "result": "> 500", "unit": "µM"}, {"measurement": "Km", "setting": "KPC-3^V240G", "result": "> 500", "unit": "µM"}, {"measurement": "Km", "setting": "KPC-3^D179Y [14]", "result": "90 ± 31", "unit": "µM"}, {"measurement": "kcat", "setting": "KPC-3^D179Y [14]", "result": "38 ± 7", "unit": "s⁻¹"}, {"measurement": "Km", "setting": "KPC-3^D179Y/T243M [15]", "result": "42.5 ± 12.5", "unit": "µM"}, {"measurement": "kcat", "setting": "KPC-3^D179Y/T243M [15]", "result": "18.7 ± 2.3", "unit": "s⁻¹"}, {"measurement": "Ki", "setting": "KPC-2 WT", "result": "32.9 ± 5.6", "unit": "µM"}, {"measurement": "Ki", "setting": "KPC-2^D179Y [16]", "result": "4.6 ± 1.2", "unit": "µM"}, {"measurement": "Ki", "setting": "KPC-2^D179Y/T243M [17]", "result": "3.2 ± 0.6", "unit": "µM"}, {"measurement": "Ki", "setting": "KPC-3 WT [18]", "result": "276 ± 47", "unit": "µM"}, {"measurement": "Ki", "setting": "KPC-3^D179Y [19]", "result": "1040 ± 72", "unit": "µM"}, {"measurement": "Ki", "setting": "KPC-3^D179Y/T243M [20]", "result": "728 ± 58", "unit": "µM"}, {"measurement": "weaker affinity than CAZ", "setting": "[21]", "result": "~ 10 fold"}]}, {"molecule": "KPC-2 WT (Klebsiella pneumoniae)", "values": [{"measurement": "kcat/Km", "setting": "[22]", "result": "730 ± 130", "unit": "M⁻¹ s⁻¹"}, {"measurement": "kcat/Km", "setting": "[23]", "result": "130000 ± 4000", "unit": "M⁻¹ s⁻¹"}, {"measurement": "kcat/Km", "setting": "[24]", "result": "2200 ± 240", "unit": "M⁻¹ s⁻¹"}]}]}
